Results published in patent US12570666B2, “Furoindazole derivatives” (Bayer Aktiengesellschaft, priority 2019, dated 2026).

Target: T1, human GPR84 receptor (Homo sapiens, UniProt Q9NQS5)
T1 construct: frozen aliquots prepared by acCELLerate; host or cells: CHO-K1
Assay: cAMP HTRF assay for identification of cellular GPR84 antagonists
Format: cell-based
Conditions: CHO-K1 cells stably expressing human GPR84; Forskolin + agonist 6-OAU (EC80); average or median values
Summary of the method: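 IC50 came from 4-parameter fits over 20 μM–0.07 nM (11 points, duplicate), normalized between DMSO (0%) and agonist-free (100% inhibition) wells. Readout: cAMP-d2/Eu-cryptate HTRF in hGPR84 CHO-K1 cells given forskolin plus agonist, compound preincubated 30 min at room temperature.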

T1 sequence (Q9NQS5 whole entry): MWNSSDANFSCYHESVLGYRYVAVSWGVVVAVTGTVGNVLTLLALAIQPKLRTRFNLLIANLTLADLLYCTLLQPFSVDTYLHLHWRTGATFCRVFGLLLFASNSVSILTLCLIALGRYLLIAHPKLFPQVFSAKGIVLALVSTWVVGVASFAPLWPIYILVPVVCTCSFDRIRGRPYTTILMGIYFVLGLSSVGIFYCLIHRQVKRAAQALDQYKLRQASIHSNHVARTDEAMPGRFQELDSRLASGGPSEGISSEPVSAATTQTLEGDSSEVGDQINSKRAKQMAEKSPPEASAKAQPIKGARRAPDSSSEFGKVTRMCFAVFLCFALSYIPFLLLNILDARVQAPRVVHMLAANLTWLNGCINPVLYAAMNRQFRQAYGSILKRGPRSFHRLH

SMILES	IC50 [µM]
C[C@@H]1Cc2oc(C(=O)NC[C@@H]3COCCO3)c(C(F)(F)F)c2-c2nn(CC3CCN(C(=O)C4(C)CC4)CC3)cc21 (single isomer, unassigned) [Example 299, (4R or 4S)-N-{[(2R)-1,4-dioxan-2-yl]methyl}-4-methyl-2-{[1-(1-methylcyclopropane-1-carbonyl)piperidin-4-yl]methyl}-8-(trifluoromethyl)-4,5-dihydro-2H-furo[2,3-g]indazole-7-carboxamide]	0.024
CCc1ccc(Cn2cc3c(n2)-c2c(oc(C(=O)NC[C@@H]4CCCO4)c2C)CC3)cn1 [Example 186]	0.063
Cc1c(C(=O)NC[C@@H]2COCCO2)oc2c1-c1nn(C[C@@H]3CCO3)cc1CC2 [Example 100, N-[(2R)-1,4-dioxan-2-ylmethyl]-8-methyl-2-[(2S)-oxetan-2-ylmethyl]-4,5-dihydro-2H-furo[2,3-g]indazole-7-carboxamide]	0.31
Cc1c(C(=O)NC[C@@H]2COCCO2)oc2c1-c1nn(CC3(F)COC3)cc1CC2 [Example 96, N-[(2R)-1,4-dioxan-2-ylmethyl]-2-[(3-fluorooxetan-3-yl)methyl]-8-methyl-4,5-dihydro-2H-furo[2,3-g]indazole-7-carboxamide]	0.047
Cc1c(C(=O)NCC2CN(C)CCO2)oc2c1-c1nn(Cc3ccccn3)cc1CC2 (racemic) [Example 38, 8-methyl-N-{[(2R/S)-4-methylmorpholin-2-yl]methyl}-2-(pyridin-2-ylmethyl)-4,5-dihydro-2H-furo[2,3-g]indazole-7-carboxamide]	0.7
Cc1c(C(=O)NCC2CCC(C)(C)O2)oc2c1-c1nn(C[C@H]3COCCO3)cc1C1(CC1)C2 (mixture of isomers) [Example 195]	0.029
Cn1ccc(CNC(=O)c2oc3c(c2C(F)(F)F)-c2nn(Cc4ccccn4)cc2C2(CCC2)C3)n1 [Example 276, N-[(1-Methyl-1H-pyrazol-3-yl)methyl]-2′-(pyridin-2-ylmethyl)-8′-(trifluormethyl)-2′,5′-dihydrospiro[cyclobutan-1,4′-furo[2,3-g]indazol]-7′-carboxamide]	0.156
Cc1c(C(=O)NCC2CCCO2)oc2c1-c1nn(Cc3ccccn3)cc1CC2 (racemic) [Example 3, 8-methyl-2-(pyridin-2-ylmethyl)-N-[(2R/S)-tetrahydrofuran-2-ylmethyl]-4,5-dihydro-2H-furo[2,3-g]indazole-7-carboxamide]	0.24
Cc1c(C(=O)NC[C@@H]2COCCO2)oc2c1-c1nn(C[C@@H]3CN(C)CCO3)cc1CC2 [Example 104, N[(2R)-1,4-dioxan-2-ylmethyl]-8-methyl-2-{[(2S)-4-methylmorpholin-2-yl]methyl}-4,5-dihydro-2H-furo[2,3-g]indazole-7-carboxamide]	0.18
O=C(NCCc1c[nH]cn1)c1oc2c(c1C(F)(F)F)-c1nn(C[C@H]3COCCO3)cc1CC2 [Example 235, 2-[(2S)-1,4-Dioxan-2-ylmethyl]-N-[2-(1 H-imidazol-4-yl)ethyl]-8-(trifluormethyl)-4,5-dihydro-2H-furo[2,3-g]indazol-7-carboxamide]	1.6
Cc1cccc(Cn2cc3c(n2)-c2c(oc(C(=O)NCCN4CCC4)c2C)CC3)n1 [Example 67, N-[2-(azetidin-1-yl)ethyl]-8-methyl-2-[(6-methylpyridin-2-yl)methyl]-4,5-dihydro-2H-furo[2,3-g]indazole-7-carboxamide]	1.81
Cc1c(C(=O)NC[C@@H]2CCCO2)oc2c1-c1nn(Cc3ccccn3)cc1C(C)C2 (mixture of isomers) [Example 247, (4+)-4,8-dimethyl-N-{[(2S)-oxolan-2-yl]methyl}-2-[(pyridin-2-yl)methyl]-4,5-dihydro-2H-furo[2,3-g]indazole-7-carboxamide]	0.066
Cc1c(C(=O)NC[C@@H]2CCCO2)oc2c1-c1nn(Cc3ccncc3)cc1CC2 [Example 46, 8-methyl-2-(pyridin-4-ylmethyl)-N-[(2S)-tetrahydrofuran-2-ylmethyl]-4,5-dihydro-2H-furo[2,3-g]indazole-7-carboxamide]	0.013
Cc1c(C(=O)NCC2CCC(=O)O2)oc2c1-c1nn(Cc3ccccn3)cc1CC2 (single isomer, unassigned) [Example 39-2]	7.05
Cc1c(C(=O)NCC2CC3(CC3)CO2)oc2c1-c1nn(Cc3ccccn3)cc1CC2 (racemic) [Example 178]	0.092
Cc1c(C(=O)NC[C@@H]2CCCO2)oc2c1-c1nn(C[C@@H]3CCO3)cc1CC2 [Example 99, 8-methyl-2-[(2S)-oxetan-2-ylmethyl]-N-[(2S)-tetrahydrofuran-2-ylmethyl]-4,5-dihydro-2H-furo[2,3-g]indazole-7-carboxamide]	0.21

SMILES	IC50 [µM]
CC1(C)CC[C@H](CNC(=O)c2oc3c(c2C(F)(F)F)-c2nn(C[C@H]4COCCO4)cc2CC3)O1 (single isomer, unassigned) [Example 223-2, N-{[(2S or 2R)-5,5-dimethyloxolan-2-yl]methyl}-2-{[(2S)-1,4-dioxan-2-yl]methyl}-8-(trifluoromethyl)-4,5-dihydro-2H-furo[2,3-g]indazole-7-carboxamide]	0.051
Cc1c(C(=O)NC[C@@H]2CCCO2)oc2c1-c1nn(C[C@H]3CCO3)cc1CC2 [Example 97, 8-methyl-2-[(2R)-oxetan-2-ylmethyl]-N-[(2S)-tetrahydrofuran-2-ylmethyl]-4,5-dihydro-2H-furo[2,3-g]indazole-7-carboxamide]	0.62
COc1cccc(-c2cc(CNC(=O)c3oc4c(c3C)-c3nn(Cc5ccccn5)cc3CC4)no2)c1 [Example 14, N-{[5-(3-methoxyphenyl)-1,2-oxazol-3-yl]methyl}-8-methyl-2-(pyridin-2-ylmethyl)-4,5-dihydro-2H-furo[2,3-g]indazole-7-carboxamide]	4.79
Cc1c(C(=O)NCC2CCC(C)O2)oc2c1-c1nn(C[C@H]3COCCO3)cc1C1(CC1)C2 (mixture of isomers) [Example 198]	0.094
O=C(NCCc1ccccn1)c1oc2c(c1C(F)(F)F)-c1nn(C[C@H]3COCCO3)cc1CC2 [Example 233, 2-[(2S)-1,4-Dioxan-2-ylmethyl]-N-[2-(pyridin-2-yl)ethyl]-8-(trifluormethyl)-4,5-dihydro-2H-furo[2,3-g]indazol-7-carboxamide]	1.12
O=C(NC[C@@H]1COCCO1)c1oc2c(c1C(F)(F)F)-c1nn(CC3CC3)cc1CC2 [Example 282, 2-(cyclopropylmethyl)-N-{[(2R)-1,4-dioxan-2-yl]methyl}-8-(trifluoromethyl)-4,5-dihydro-2H-furo[2,3-g]indazole-7-carboxamide]	0.01
C[C@@H]1Cc2oc(C(=O)NCc3cnccn3)c(C(F)(F)F)c2-c2nn(C[C@H]3COCCO3)cc21 (single isomer, unassigned) [Example 260, (4R or 4S)-2-{[(2S)-1,4-dioxan-2-yl]methyl}-4-methyl-N-[(pyrazin-2-yl)methyl]-8-(trifluoromethyl)-4,5-dihydro-2H-furo[2,3-g]indazole-7-carboxamide]	0.024
Cc1c(C(=O)NC[C@@H]2CCCO2)oc2c1-c1nn(CC3CC3)cc1CC2 [Example 48, 2-(cyclopropylmethyl)-8-methyl-N-[(2S)-tetrahydrofuran-2-ylmethyl]-4,5-dihydro-2H-furo[2,3-g]indazole-7-carboxamide]	0.097
Cc1c(C(=O)NC[C@@H]2COCCO2)oc2c1-c1nn(Cc3ccncc3)cc1CC2 [Example 47, N-[(2R)-1,4-dioxan-2-ylmethyl]-8-methyl-2-(pyridin-4-ylmethyl)-4,5-dihydro-2H-furo[2,3-g]indazole-7-carboxamide]	0.019
Cn1ccc(CNC(=O)c2oc3c(c2C2CC2)-c2nn(Cc4ccccn4)cc2CC3)n1 [Example 121, 8-cyclopropyl-N-[(1-methyl-1H-pyrazol-3-yl)methyl]-2-(pyridin-2-ylmethyl)-4,5-dihydro-2H-furo[2,3-g]indazole-7-carboxamide]	0.067
CCC(=O)C(=O)N1CCC(Cn2cc3c(n2)-c2c(oc(C(=O)NC[C@@H]4COCCO4)c2C(F)(F)F)C[C@H]3C)CC1 (single isomer, unassigned) [Example 296, (4R or 4S)-N-{[(2R)-1,4-dioxan-2-yl]methyl}-4-methyl-2-{[1-(2-oxobutanoyl)piperidin-4-yl]methyl}-8-(trifluoromethyl)-4,5-dihydro-2H-furo[2,3-g]indazole-7-carboxamide]	0.009
Cc1c(C(=O)NC[C@@H]2CCCO2)oc2c1-c1nn(CC3CN(C(=O)OC(C)(C)C)C3)cc1CC2 [Example 109, tert-butyl 3-[(8-methyl-7-{[(2S)-tetrahydrofuran-2-ylmethyl]carbamoyl}-4,5-dihydro-2H-furo[2,3-g]indazol-2-yl)methyl]azetidine-1-carboxylate]	0.011
Cc1c(C(=O)NCc2ccn(C)n2)oc2c1-c1nn(Cc3ccccn3)cc1CC2 [Example 34, 8-methyl-N-[(1-methyl-1H-pyrazol-3-yl)methyl]-2-(pyridin-2-ylmethyl)-4,5-dihydro-2H-furo[2,3-g]indazole-7-carboxamide]	0.28
CC1CCC(CNC(=O)c2oc3c(c2C(F)(F)F)-c2nn(C[C@H]4COCCO4)cc2CC3)O1 (mixture of isomers) [Example 224, 2-{[(2S)-1,4-dioxan-2-yl]methyl}-N-{[(2±,5±)-5-methyloxolan-2-yl]methyl}-8-(trifluoromethyl)-4,5-dihydro-2H-furo[2,3-g]indazole-7-carboxamide]	0.018
Cc1c(C(=O)NC[C@@H]2CCCO2)oc2c1-c1nn(C[C@@H]3CCCO3)cc1CC2 [Example 107, 8-methyl-N,2-bis[(2S)-tetrahydrofuran-2-ylmethyl]-4,5-dihydro-2H-furo[2,3-g]indazole-7-carboxamide]	0.035
COCC(=O)N1CCC(Cn2cc3c(n2)-c2c(oc(C(=O)NC[C@@H]4COCCO4)c2C(F)(F)F)CC3)CC1 [Example 283, N-{[(2R)-1,4-dioxan-2-yl]methyl}-2-{[1-(methoxyacetyl)piperidin-4-yl]methyl}-8-(trifluoromethyl)-4,5-dihydro-2H-furo[2,3-g]indazole-7-carboxamide]	0.139
